In brackets after ≈: the same amount, converted by molar mass.

Data set [1] in a line: Complexing constant Log K in methanol at 25° C. In kind it is binding. The procedure:
K is the complexing constant of a CEM and a […] cation in methanol, at 25° C., which is measured according to the standard method of isothermal calorimetric titration.

The nature of data set [2]: Liquid-liquid extraction of mono-salt saline solution. The following applies: for Extraction rate at room temperature (RT), BaCl2 / Extraction rate at room temperature (RT), CaCl2 / Extraction rate at room temperature (RT), KCl / Extraction rate at room temperature (RT), LiCl / Extraction rate at room temperature (RT), MgCl2 / Extraction rate at room temperature (RT), NaCl / Extraction rate at room temperature (RT), SrCl2: 0.1M CEM + 3.52M ASM2 in CH2Cl2, initial salt 0.1 mol/L, Org./Water = 1, molar %. The text has this:
The extracting composition is obtained by solubilizing an amount of CEM and ASM in the selected fluidizing agent, dichloromethane CH2Cl2, dichlorobenzene or dichlorotoluene or any other fluidizing agent able to well solubilize the mixture CEM/ASM in order to obtain the searched final concentrations after solubilizing CEMs and ASMs in a minimum of 3 milliliters of fluidizing agent. If the selected fluidizing agent is also an ASM compound, so the selected ASM volume is at least 3 milliliters. The given concentrations of ASM2 and ASM9 are related to the added fluidizing agent volume and the concentrations of CEM are related to the added fluidizing agent+ASM volume. The extracting organic composition is then lightly heated so as to promote the solubilization of the organic compounds by means of a heat gun (temperature around 50 to 60° C.) for a few seconds (10 to 30 seconds) until a clear solution is obtained. The composition is thus left for 24 hours at room temperature so as to make sure that the obtained formulation is stable.
These sealed formulations are then orbitally stirred at 500 revolutions/minute for two hours after adding an equivalent volume of water which was distilled twice so as to allow a water saturation of the whole formulation and a pH control at the inlet and at the outlet (pH close to 7, or at least maintained after contact with the saturation water).
3 mL of the prepared extracting organic composition are then taken from the lower phase of the decanted diphasic mixture and transferred to a vial containing 3 mL of the water containing the one or more considered chloride salts (NaCl or others), then the vial is sealed and orbitally stirred (at 500 revolutions per minute) for 2 hours at room temperature (RT), that is to say between 20 and 25° C.
A verification is made to make sure that droplets in the range of 1-2 mm are really present during these stirrings in order to be sure that an equilibrium in the distribution of the considered chloride salt (NaCl or other) is achieved between both liquid phases at the end of stirring. The aspect of the organic and aqueous phases is clear and colorless or slightly turbid.
Once the 2-hour stirring is carried out, the stirring is stopped and the whole is left for decantation for about 10 minutes, at least until both phases are completely separated, at the temperature of the assay. Then, the upper aqueous phase is taken then stirred and diluted in order to analyze its salinity by a ion chromatography (a Metrohm™ device including a cation analyzing column and an anion analyzing column suitable for the ions and for the concentration of the salts which are searched for). Likewise, the chloride salt (NaCl or other) initial aqueous solution is also analyzed by this ion chromatography to determine its cation and chloride molar relative concentration before the extraction. All the extractions and analyses were duplicated.
The considered extracting composition comprises 0.1 mol/L of CEM1 and 3.52 mol/L of ASM2 in dichloromethane CH2Cl2, which was obtained as described above. The initial concentration of the considered salt in water, whether it is LiCl, NaCl, KCl, MgCl2, CaCl2, SrCl2 or BaCl2, is 0.1 mol/L.
After carrying out these 7 specific extractions (duplicated) of salts, the amounts of extracted cations in relative molar percentage before and after extraction at room temperature and at water/extracting formulation iso-volume are indicated in table I: […]

The next data set in a line: Solubility in water. The class given is physicochemical. The text has this: The hydrophoby or the solubility in water of a compound may be measured by standard methods and, especially, by UV/visible spectroscopy.
Setting [3] is: mono-salt solutions, 0.1M CEM + 3.52M ASM2 in CH2Cl2, RT.

`CC(C)(C)c1cc2c(OCC(=O)N3CCCC3)c(c1)Cc1cc(C(C)(C)C)cc(c1OCC(=O)N1CCCC1)Cc1cc(C(C)(C)C)cc(c1OCC(=O)N1CCCC1)Cc1cc(C(C)(C)C)cc(c1OCC(=O)N1CCCC1)C2` [CEM 4, 4-tert-butyl-Calix[4]arene tetrakis(N-pyrrolidinylacetamide)]: in data set [1], the “Log K(Ba^++, MeOH, 25° C.)” value is on record as 6.8; the “Log K(Ca^++, MeOH, 25° C.)” value is reported as 7.8; the “Log K(Cs^+, MeOH, 25° C.)” value is reported as 1.0; the “Log K(K^+, MeOH, 25° C.)” value stood at 5.4. In addition, in data set [1], the “Log K(Li^+, MeOH, 25° C.)” value was 3.0; the “Log K(Mg^++, MeOH, 25° C.)” value was 1.2; the “Log K(Na^+, MeOH, 25° C.)” value is recorded as 7.2; the “Log K(Rb^+, MeOH, 25° C.)” value stood at 3.0. The “Log K(Sr^++, MeOH, 25° C.)” value in data set [1] amounted to 8.1.

For the molecule `CCOC(=O)COc1c2cc(C(C)(C)C)cc1Cc1cc(C(C)(C)C)cc(c1OCC(=O)OCC)Cc1cc(C(C)(C)C)cc(c1OCC(=O)OCC)Cc1cc(C(C)(C)C)cc(c1OCC(=O)OCC)Cc1cc(C(C)(C)C)cc(c1OCC(=O)OCC)Cc1cc(C(C)(C)C)cc(c1OCC(=O)OCC)C2` [CEM12, 4-tert-Butylcalix[6]arene-hexaacetic acid hexaethyl ester], in data set [2], the “Extraction rate at room temperature (RT), BaCl2” value came out at 11.8%; the “Extraction rate at room temperature (RT), CaCl2” value was determined as 5.5%; the “Extraction rate at room temperature (RT), KCl” value stood at 55.7%; the “Extraction rate at room temperature (RT), LiCl” value stood at 9.0%. Also, in data set [2], the “Extraction rate at room temperature (RT), MgCl2” value is given as 5.4%; the “Extraction rate at room temperature (RT), NaCl” value is 29.6%; the “Extraction rate at room temperature (RT), SrCl2” value is listed as 4.6%. Besides, the K/Ca selectivity in data set [2] (setting [3]) was 10.2.

Consider `CCN(CC)C(=O)COc1c2cc(C(C)(C)C)cc1Cc1cc(C(C)(C)C)cc(c1OCC(=O)N(CC)CC)Cc1cc(C(C)(C)C)cc(c1OCC(=O)N(CC)CC)Cc1cc(C(C)(C)C)cc(c1OCC(=O)N(CC)CC)Cc1cc(C(C)(C)C)cc(c1OCC(=O)N(CC)CC)Cc1cc(C(C)(C)C)cc(c1OCC(=O)N(CC)CC)Cc1cc(C(C)(C)C)cc(c1OCC(=O)N(CC)CC)Cc1cc(C(C)(C)C)cc(c1OCC(=O)N(CC)CC)C2` [CEM 9, 4-tert-butyl-Calix[8]arene octakis(N,N-diethylacetamide)], for which the “Log K(Ca^++, MeOH, 25° C.)” value in data set [1] was 7.2.

For `OC(c1cccc(C(F)(F)F)c1)c1cccc(C(F)(F)F)c1` [ASM8], the Solubility in water in “Solubility in water” is 70 µM (≈ 22.4 µg/mL).

As to `CCOC(=O)COc1c2cc(C(C)(C)C)cc1Cc1cc(C(C)(C)C)cc(c1OCC(=O)OCC)Cc1cc(C(C)(C)C)cc(c1OCC(=O)OCC)Cc1cc(C(C)(C)C)cc(c1OCC(=O)OCC)Cc1cc(C(C)(C)C)cc(c1OCC(=O)OCC)C2` [CEM 11, 4-tert-Butylcalix[5]arene-pentaacetic acid pentaethyl ester], in data set [1], the “Log K(Cs^+, MeOH, 25° C.)” value is 5.5; the “Log K(K^+, MeOH, 25° C.)” value was 5.3; the “Log K(Li^+, MeOH, 25° C.)” value came to 1.0; the “Log K(Na^+, MeOH, 25° C.)” value was determined as 4.4. The “Log K(Rb^+, MeOH, 25° C.)” value in data set [1] was found to be 5.6.

In turn, `OCc1cc(C(F)(F)F)c(C(F)(F)F)c(C(F)(F)F)c1` [ASM4] yielded a Solubility in water in the data set “Solubility in water” of 390 µM (≈ 122 µg/mL).

Turning to `OCc1cc(C(F)(F)F)cc(C(F)(F)F)c1` [ASM2, [3,5-Bis(Trifluoromethyl)phenyl]methanol], the Solubility in water in “Solubility in water” came out at 2290 µM (≈ 559 µg/mL).

As for `CCOC(=O)COc1c2cc(C(C)(C)C)cc1Cc1cc(C(C)(C)C)cc(c1OCC(=O)OCC)Cc1cc(C(C)(C)C)cc(c1OCC(=O)OCC)Cc1cc(C(C)(C)C)cc(c1OCC(=O)OCC)C2` [CEM10, 4-tert-Butylcalix[4]arene-tetraacetic acid tetraethyl ester], in data set [1], the “Log K(Cs^+, MeOH, 25° C.)” value turned out to be 2.7; the “Log K(K^+, MeOH, 25° C.)” value stood at 2.4; the “Log K(Li^+, MeOH, 25° C.)” value is given as 2.6; the “Log K(Na^+, MeOH, 25° C.)” value is 5.0. Moreover, the “Log K(Rb^+, MeOH, 25° C.)” value in data set [1] worked out at 3.1. Also, in data set [2], the “Extraction rate at room temperature (RT), BaCl2” value came out at 3.7%; the “Extraction rate at room temperature (RT), CaCl2” value came to 4.7%; the “Extraction rate at room temperature (RT), KCl” value turned out to be 14.4%; the “Extraction rate at room temperature (RT), LiCl” value amounted to 5.5%. Also, in data set [2], the “Extraction rate at room temperature (RT), MgCl2” value came out at 5.1%; the “Extraction rate at room temperature (RT), NaCl” value stood at 66.2%; the “Extraction rate at room temperature (RT), SrCl2” value amounted to 5.9%. Moreover, the Na/Ca selectivity in data set [2] (setting [3]) came to 14.

Molecule `OCc1cc(C(F)(F)C(F)(F)C(F)(F)C(F)(F)F)cc(C(F)(F)C(F)(F)C(F)(F)C(F)(F)F)c1` [ASM3] yielded a Solubility in water in the data set “Solubility in water” of 0.5 µM (≈ 0.272 µg/mL).

On to `OCc1cccc(C(F)(F)F)c1` [ASM1, 3-(trifluoromethyl)benzyl alcohol], for which the Solubility in water in the data set “Solubility in water” was found to be 32000 µM (≈ 5640 µg/mL).

As to `CC(O)c1cccc(C(F)(F)C(F)(F)C(F)(F)F)c1` (stereo not shown) [ASM5], in “Solubility in water”, the Solubility in water stood at 420 µM (≈ 122 µg/mL).

Regarding `CCCC(O)c1cc(C(F)(F)F)cc(C(F)(F)F)c1` (stereo not shown) [ASM7], in the data set “Solubility in water”, the Solubility in water was 480 µM (≈ 137 µg/mL).

For the origin of these results see patent publication US12623942B2, “Method for extracting salts and temperature- regenerated extracting composition” (ADIONICS, priority 2016, dated 2026).
